Where a name gives a salt, the structure may show the parent alone.

In one experiment the test system is normotensive rat. Description: blood pressure lowering effect in normotensive rats (i.v.). The settings on record: iv, read-out: dose that lowers blood pressure (as low as). Type of experiment: in vivo. How it is done:
(§1) Indicative of in vivo adenosine receptor agonist activity, the hypotensive activity of the compounds of the invention as well as their effect on heart rate can be measured in normotensive or spontaneous hypertensive rats on intravenous or oral administration.
Typically, the blood pressure lowering effect in normotensive rats can be determined as follows:
Adult male rats weighing 300-400 g are anesthetized using Inactin (100 mg/kg, i.p.). A femoral artery and contralateral vein are cannulated for direct blood pressure measurement and i.v. drug administration, respectively. Animals are allowed a 15 minute equilibration period before testing. Vehicle (1 ml/kg, i.v.) is administered over a 30 second period followed by a 0.3 ml saline flush administered over a 30 second period. Changes in diastolic blood pressure are recorded using a Beckman polygraph while heart rate is recorded as a derivative of the blood pressure pulse. The test compound is administered in the same manner as vehicle and a dose response curve is established. Percent changes in heart rate and blood pressure are recorded.

Experiment [1] has as its system spontaneous hypertensive rat. Description: blood pressure lowering effect in the spontaneous hypertensive rat (oral). The settings on record: p.o., read-out: dose that lowers blood pressure (as low as). It counts as in vivo. How it is done: as §1
The blood pressure lowering effect in the spontaneous hypertensive rat is determined on oral administration.

Experiment [2] concerns the target T1, adenosine-2 (A-2) receptor (Rattus norvegicus, UniProt P30543).
T1 construct: striatal membrane preparations from corpus striatum of male Sprague-Dawley rats; from tissue; host or cells: corpus striatum membranes of male Sprague-Dawley rats
Description: in vitro adenosine-2 (A-2) receptor binding: inhibition of specific 3H-NECA binding in rat striatal membranes. Further details: species or system male Sprague-Dawley rats. The note with it: 4 nM 3H-NECA, in presence of 50 nM cyclopentyladenosine.
Description: The concentration of a particular compound required to displace the specific binding of 4 nM ^3 H-NECA is determined in the presence of 50 nM cyclopentyladenosine.

T1 sequence (P30543 whole entry): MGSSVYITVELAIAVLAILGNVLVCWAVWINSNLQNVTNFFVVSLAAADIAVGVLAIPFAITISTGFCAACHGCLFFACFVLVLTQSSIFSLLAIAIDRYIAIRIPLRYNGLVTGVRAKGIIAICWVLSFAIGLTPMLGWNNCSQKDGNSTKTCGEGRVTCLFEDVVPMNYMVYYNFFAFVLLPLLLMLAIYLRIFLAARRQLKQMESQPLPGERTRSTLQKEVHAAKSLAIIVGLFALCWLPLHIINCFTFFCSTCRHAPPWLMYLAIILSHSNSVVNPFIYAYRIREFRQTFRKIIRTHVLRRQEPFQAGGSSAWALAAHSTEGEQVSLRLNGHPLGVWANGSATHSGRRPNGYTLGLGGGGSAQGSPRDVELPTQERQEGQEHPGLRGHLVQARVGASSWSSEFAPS

Turning to `CCNC(=O)[C@H]1O[C@@H](n2cnc3c(N)nc(NCCc4ccc(CCC(=O)O)cc4)nc32)[C@H](O)[C@@H]1O` [Example 2g, 2-[p-(2-carboxyethyl)-2-phenethylamino]-adenosine5'-(N-ethyl)-carboxamide], the minimal effective dose in the experiment on normotensive rat was approximately 0.005 mg/kg; in experiment [1], approximately 3 mg/kg. What is called IC50 is the point on the concentration scale where inhibition reaches its midpoint. For the compound `CCNC(=O)[C@H]1O[C@@H](n2cnc3c(N)nc(NCCC4CCCCC4)nc32)[C@H](O)[C@@H]1O` [Example 2n, 2-(2-cyclohexylethylamino)-adenosine-5'-(N-ethyl)carboxamide hydrochloride], in experiment [2], the IC50 was approximately 13 nM.

The values above are taken from patent US4968697A, “2-substituted adenosine 5'-carboxamides as antihypertensive agents” (Ciba-Geigy Corporation, priority 1989, dated 1990).
